Assay results reported in the Deep4Chem optical property database.
Several values for one entry are separate records, joined by “and”; a condition that tells them apart may be missing. Equal entries are not always repeated.

Test: solvent given as SMILES

## Brc1cc(/C=C/c2ccc(N(c3ccccc3)c3ccccc3)cc2)c(Br)cc1/C=C/c1ccc(N(c2ccccc2)c2ccccc2)cc1
In ClCCl
  fluorescence lifetime: 0.89 ns

## CCCCCCCCCCCCN1C(=O)c2c(c3ccc4cc(-c5ccc(C=O)cc5)c(OC)cc4c3c3c2ccc2cc(-c4ccc(C=O)cc4)c(OC)cc23)C1=O
In ClCCl
  fluorescence lifetime: 6.45 ns

## Cc1ccc(N(c2ccccc2)c2ccc3ccc4c(N(c5ccccc5)c5ccc(C)cc5)ccc5ccc2c3c54)cc1
In ClCCl
  fluorescence lifetime: 6.2 ns

## COc1ccc2c3cccc4c(OC)ccc(c5cccc1c52)c43
In C1CCOC1
  fluorescence lifetime: 3.95 ns
In Cc1ccccc1
  fluorescence lifetime: 3.6 ns
In ClC(Cl)(Cl)Cl
  fluorescence lifetime: 3.65 ns
In ClC(Cl)Cl
  fluorescence lifetime: 3.89 ns
In ClCCl
  fluorescence lifetime: 4.33 ns
In c1ccncc1
  fluorescence lifetime: 4.02 ns

## C(=C\c1ccc(/C=C/c2ccc(N(c3ccccc3)c3ccccc3)cc2)c2nsnc12)/c1ccc(N(c2ccccc2)c2ccccc2)cc1
In C1CCOC1
  fluorescence lifetime: 4.53 ns
In CCOC(C)=O
  fluorescence lifetime: 4.74 ns
In CN(C)C=O
  fluorescence lifetime: 2.75 ns
In Cc1ccccc1
  fluorescence lifetime: 4.29 ns
In ClC(Cl)Cl
  fluorescence lifetime: 4.21 ns
In ClCCl
  fluorescence lifetime: 4.1 ns

## CCCCc1cc2cccc[n+]2[b-]2c(-c3cccc4[b-]3[n+]3ccccc3cc4CCCC)cccc21
In C1CCCCC1
  fluorescence lifetime: 4.3 ns

## CCOC(=O)c1cc(C)n2nc(-c3ccccc3)ccc12
In CCCCCC
  fluorescence lifetime: 17.4 ns

## Fc1ccc(N(c2ccc(F)cc2)c2ccc3c4cccc5c(N(c6ccc(F)cc6)c6ccc(F)cc6)ccc(c6cccc2c63)c54)cc1
In ClCCl
  fluorescence lifetime: 4.26 ns

## CC1=N/C(=C\c2cccc(N(C)C)c2)C(=O)N1C
In C1CCOC1
  fluorescence lifetime: 15.3 ns
In CC#N
  fluorescence lifetime: 8.6 ns
In CCCCCC
  fluorescence lifetime: 22.5 ns

## COc1ccc(/C=C/C2=C3CCc4ccccc4C3=[O+][B-](F)(F)O2)cc1
In ClCCl
  fluorescence lifetime: 0.24 ns

## C/C=C/c1cc(OC)cc(OC)c1
In CC#N
  fluorescence lifetime: 2.9 ns
In CCCCCC
  fluorescence lifetime: 1.5 ns

## C[NH+](C)c1c2ccccc2cc2ccccc12
In O
  fluorescence lifetime: 17.3 ns

## C=Cc1ccc(OC)cc1
In C1CCCCC1
  fluorescence lifetime: 6.6 ns
In CC#N
  fluorescence lifetime: 6.3 ns

## N[C@@H](Cc1ccc(O)cc1)C(=O)O
In O
  fluorescence lifetime: 3.27 ns

## Cc1cc(=O)oc2c3c4c(cc12)CCCN4CCC3
In C1CCCCC1
  fluorescence lifetime: 2.6 ns
In CC#N
  fluorescence lifetime: 3.3 ns
In CCC#N
  fluorescence lifetime: 4.26 ns
In CCCCl
  fluorescence lifetime: 3.75 ns
In CCO
  fluorescence lifetime: 4.5 ns and 4.54 ns
In O
  fluorescence lifetime: 5.9 ns
In OC(C(F)(F)F)C(F)(F)F
  fluorescence lifetime: 6.88 ns
In OCC(F)(F)F
  fluorescence lifetime: 6.36 ns

## CC(C)(C)c1ccc(N(c2ccccc2)c2ccc3ccc4c(N(c5ccccc5)c5ccc(C(C)(C)C)cc5)ccc5ccc2c3c54)cc1
In ClCCl
  fluorescence lifetime: 6.2 ns

## O=c1[nH]c(=O)n([C@@H]2O[C@H](CO)[C@@H](O)[C@H]2O)cc1-c1cc2ccccc2s1
In C1COCCO1
  fluorescence lifetime: 0.45 ns
In CC#N
  fluorescence lifetime: 0.49 ns
In CO
  fluorescence lifetime: 0.6 ns
In O
  fluorescence lifetime: 1.04 ns

## Nc1ncc2nc[nH]c2n1
In O
  fluorescence lifetime: 11.3 ns

## CCOC(=O)c1ccccc1-c1c2ccc(=[N+](CC)CC)cc-2oc2c1c(=O)oc1cc(N(CC)CC)ccc12
In CCO
  fluorescence lifetime: 2.12 ns
In ClC(Cl)Cl
  fluorescence lifetime: 4.31 ns
In O
  fluorescence lifetime: 0.27 ns

## CCC(CC)n1c2ccccc2c2cc3c(cc21)c1ccccc1n3C(CC)CC
In ClC(Cl)Cl
  fluorescence lifetime: 3.05 ns

## CC(C)(C)c1ccc2c(c1)c1cc(C(C)(C)C)ccc1n2-c1cc(C(=O)c2ccccn2)cc(-n2c3ccc(C(C)(C)C)cc3c3cc(C(C)(C)C)ccc32)c1
In c1cc(-c2cccc(-n3c4ccccc4c4ccccc43)c2)cc(-n2c3ccccc3c3ccccc32)c1
  fluorescence lifetime: 5.3 ns

## C/C=C/c1ccc(OC)c(OC)c1
In CC#N
  fluorescence lifetime: 4 ns
In CCCCCC
  fluorescence lifetime: 3.7 ns

## CC1(C)c2ccccc2N(c2ccccc2)c2ccc(S(=O)(=O)c3ccc4c(c3)C(C)(C)c3ccccc3N4c3ccccc3)cc21
In O=P(c1ccccc1)(c1ccccc1)c1ccccc1Oc1ccccc1P(=O)(c1ccccc1)c1ccccc1
  fluorescence lifetime: 2.06 ns

## Nc1ccc2c3c(cccc13)C(=O)c1ccccc1-2
In CC#N
  fluorescence lifetime: 5.9 ns
In CC(C)=O
  fluorescence lifetime: 6.9 ns
In CC(C)O
  fluorescence lifetime: 2 ns
In CCCCOCCCC
  fluorescence lifetime: 9.2 ns
In CCOC(C)=O
  fluorescence lifetime: 7.1 ns
In CCOCC
  fluorescence lifetime: 9.5 ns
In CO
  fluorescence lifetime: 1.5 ns
In Cc1ccccc1
  fluorescence lifetime: 9.2 ns
In Clc1ccccc1
  fluorescence lifetime: 8.6 ns
In N#Cc1ccccc1
  fluorescence lifetime: 7.5 ns
In O=C1CCCCC1
  fluorescence lifetime: 7.8 ns

## COc1ccc2cc(/C=C/C3=C4CCc5ccccc5C4=[O+][B-](F)(F)O3)ccc2c1
In ClCCl
  fluorescence lifetime: 1.6 ns

## CC1=[N+]2C(=C(c3ccc(N4CCOCC4)cc3)c3ccc(C)n3[B-]2(F)F)C=C1
In C1CCCCC1
  fluorescence lifetime: 2.15 ns
In Cc1ccccc1
  fluorescence lifetime: 3.12 ns

## O=C1c2ccc3c4ccc5c6c(ccc(c7ccc(c2c37)C(=O)N1c1ccncc1)c64)C(=O)N(c1ccncc1)C5=O
In C1CCOC1
  fluorescence lifetime: 1.92 ns
In C1COCCO1
  fluorescence lifetime: 3.27 ns
In CC(C)=O
  fluorescence lifetime: 2.9 ns
In CC(C)O
  fluorescence lifetime: 1.74 ns
In CCCCO
  fluorescence lifetime: 1.85 ns
In CCO
  fluorescence lifetime: 0.77 ns
In CCOC(C)=O
  fluorescence lifetime: 1.34 ns
In CN(C)C=O
  fluorescence lifetime: 1.69 ns
In CO
  fluorescence lifetime: 0.79 ns
In CS(C)=O
  fluorescence lifetime: 0.22 ns
In ClC(Cl)(Cl)Cl
  fluorescence lifetime: 3.75 ns
In ClC(Cl)Cl
  fluorescence lifetime: 3.74 ns

## CN(C)c1ccc(/C=C/c2cc[n+](CCCCCCCCCCCC[n+]3ccc(/C=C/c4ccc(N(C)C)cc4)cc3)cc2)cc1
In ClC(Cl)Cl
  fluorescence lifetime: 0.203 ns

## CCOC(=O)CCCCCn1c2ccc(N)cc2c(=O)c2cc(N)ccc21
In O
  fluorescence lifetime: 11.5 ns

## CCN(CC)c1cc2oc(=O)cc(C)c2cc1C
In CCO
  fluorescence lifetime: 2.56 ns

## O=C(O)CCCCCn1c2ccccc2c(=O)c2cc(Br)ccc21
In O
  fluorescence lifetime: 8.6 ns

## Cc1cc(-c2cccc3ccccc23)cc(C)[o+]1
In ClCCl
  fluorescence lifetime: 13.4 ns

## COc1ccc2cc(-c3ccccc3CC#N)c(=O)oc2c1
In ClC(Cl)Cl
  fluorescence lifetime: 2.4 ns

## CN(C)c1ccc(/C=C/C=C/c2ccc(B(O)O)cc2)cc1
In C1CCCCC1
  fluorescence lifetime: 0.621 ns

## c1cc2c3c(c1)-c1ccc4c5c(ccc(c15)B3c1ccc3c5c(ccc-2c15)CC3)CC4
In Cc1ccccc1
  fluorescence lifetime: 5.28 ns

## CN(C)c1ccc2cc3c(cc2c1)OCCN=C3
In CS(C)=O
  fluorescence lifetime: 4.4 ns

## Nc1ccc2ccc([O-])cc2c1
In O
  fluorescence lifetime: 2.27 ns

## O=C1c2ccc(-c3ccc(N(c4ccc(-c5ccccc5)cc4)c4ccc(-c5ccccc5)cc4)cc3)cc2C(=O)c2ccc(-c3ccc(N(c4ccc(-c5ccccc5)cc4)c4ccc(-c5ccccc5)cc4)cc3)cc21
In Cc1ccccc1
  fluorescence lifetime: 11.2 ns
In c1ccc2c(c1)c1ccccc1n2-c1ccc(-c2ccc(-n3c4ccccc4c4ccccc43)cc2)cc1
  fluorescence lifetime: 10.2 ns

## COc1cc(/C=C2/SC(=O)NC2=O)cc(OC)c1O
In C1CCCCC1
  fluorescence lifetime: 0.941 ns
In C1COCCO1
  fluorescence lifetime: 1.44 ns
In CC#N
  fluorescence lifetime: 0.521 ns
In CN(C)C=O
  fluorescence lifetime: 4.47 ns
In CO
  fluorescence lifetime: 0.39 ns
In O
  fluorescence lifetime: 0.34 ns
In OCC(O)CO
  fluorescence lifetime: 4.92 ns
In OCCO
  fluorescence lifetime: 2.25 ns

## CCN(CC)c1ccc2cc(/C=C/C(=C(C#N)C#N)c3ccc4c(c3)c3ccccc3n4CC)c(=O)oc2c1
In CC(C)=O
  fluorescence lifetime: 4.49 ns
In CCOC(C)=O
  fluorescence lifetime: 3.49 ns
In CN(C)C=O
  fluorescence lifetime: 4.81 ns
In CS(C)=O
  fluorescence lifetime: 4.66 ns
In Cc1ccccc1
  fluorescence lifetime: 1.15 ns
In ClCCl
  fluorescence lifetime: 3.32 ns

## COC(=O)c1cc(=O)n(C)c2cc(-c3ccccc3N(C)C)sc12
In ClCCl
  fluorescence lifetime: 1.23 ns

## CC(C)[Si]1(C(C)C)c2cc(C=C(C#N)C#N)ccc2-c2ccc(N(C)C)cc21
In C1CCCCC1
  fluorescence lifetime: 0.3 ns
In ClCCl
  fluorescence lifetime: 3.2 ns

## CCCCCCCCCCCCCCCCN(CCCCCCCCCCCCCCCC)c1ccc(/C=C/c2cc[n+](Cc3cc(C[n+]4ccc(/C=C/c5ccc(N(CCCCCCCCCCCCCCCC)CCCCCCCCCCCCCCCC)cc5)cc4)cc(C[n+]4ccc(/C=C/c5ccc(N(CCCCCCCCCCCCCCCC)CCCCCCCCCCCCCCCC)cc5)cc4)c3)cc2)cc1
In CCCCCCCCO
  fluorescence lifetime: 0.8 ns
In CCO
  fluorescence lifetime: 0.17 ns
In CO
  fluorescence lifetime: 0.11 ns
In ClC(Cl)Cl
  fluorescence lifetime: 0.92 ns
In ClCCl
  fluorescence lifetime: 0.74 ns

## CCCCCCCCCCCCN1C(=O)c2c(c3ccc4cc(-c5ccc(OC)cc5)c(OC)cc4c3c3c2ccc2cc(-c4ccc(OC)cc4)c(OC)cc23)C1=O
In ClCCl
  fluorescence lifetime: 6.44 ns

## c1csc(-c2ccc(-c3cccs3)s2)c1
In CC#N
  fluorescence lifetime: 0.2 ns
In ClCCl
  fluorescence lifetime: 0.17 ns

## CC1=[N+]2C(=C(c3ccccc3)c3ccc(C)n3[B-]2(F)F)C=C1
In C1CCCCC1
  fluorescence lifetime: 1.94 ns
In CC#N
  fluorescence lifetime: 1.33 ns
In CCOC(C)=O
  fluorescence lifetime: 1.71 ns
In CO
  fluorescence lifetime: 1.46 ns
In Cc1ccccc1
  fluorescence lifetime: 2.65 ns
In ClC(Cl)Cl
  fluorescence lifetime: 2.65 ns

## O=P1(c2ccccc2)C(c2ccc(N(c3ccccc3)c3ccccc3)cc2)=Cc2cc3ccccc3cc21 (configuration not stated)
In ClCCl
  fluorescence lifetime: 4.7 ns

## O=CC12N=N[C@](C=O)(C3C4CCC(C4)C31)C1[C@@H]3CC[C@@H](C3)[C@H]12 (some centres not stated)
In CC#N
  fluorescence lifetime: 111 ns

## O=c1c2cc(S(=O)(=O)Cl)ccc2[nH]c2ccc(S(=O)(=O)Cl)cc12
In CS(C)=O
  fluorescence lifetime: 10.8 ns

## COC(=O)c1[nH]c(-c2ccccc2)c2nnc3c4ccccc4oc3c12
In ClCCl
  fluorescence lifetime: 3.36 ns

## O=C([O-])c1ccccc1-c1c2ccc(=O)cc-2oc2cc([O-])ccc12
In CC(C)O
  fluorescence lifetime: 4.36 ns
In CCCCCCCCO
  fluorescence lifetime: 4.52 ns
In CCCCCCO
  fluorescence lifetime: 4.48 ns
In CCCCO
  fluorescence lifetime: 4.4 ns
In CCCO
  fluorescence lifetime: 4.42 ns
In CCO
  fluorescence lifetime: 4.25 ns
In CO
  fluorescence lifetime: 4.28 ns
In O
  fluorescence lifetime: 4.16 ns
In [2H]O[2H]
  fluorescence lifetime: 4.36 ns

## CCN(CC)c1ccc2c(c1)oc(=O)c1cc3c(C)nn(-c4ccccc4)c3nc12
In ClCCl
  fluorescence lifetime: 17.1 ns

## NS(=O)(=O)c1ccc(N2N=C(c3ccc(O)cc3)CC2c2ccc(Br)cc2)cc1 (configuration not stated)
In C1CCOC1
  fluorescence lifetime: 2.25 ns
In C1COCCO1
  fluorescence lifetime: 2.17 ns
In CC#N
  fluorescence lifetime: 2.2 ns
In CC(C)O
  fluorescence lifetime: 1.98 ns
In CCO
  fluorescence lifetime: 1.84 ns
In CCOC(C)=O
  fluorescence lifetime: 2.18 ns
In CN(C)C=O
  fluorescence lifetime: 2.12 ns
In CO
  fluorescence lifetime: 1.67 ns
In CS(C)=O
  fluorescence lifetime: 2 ns
In O
  fluorescence lifetime: 3.07 ns

## CCOC(=O)CCCCCn1c2ccc([N+](=O)[O-])cc2c(=O)c2cc3c(cc21)c(=O)c1cc([N+](=O)[O-])ccc1n3CCCCCC(=O)OCC
In ClCCl
  fluorescence lifetime: 5.1 ns

## Cc1cc(C)c(B(c2ccc(-n3c4ccccc4c4ccccc43)cc2)c2c(C)cc(C)cc2C)c(C)c1
In Cc1ccccc1
  fluorescence lifetime: 3.7 ns

## Nc1ccc2ccc(O)cc2c1
In O
  fluorescence lifetime: 7.69 ns

## c1ccc(-c2ccc(-c3nc(-n4c5ccccc5c5ccc6c7ccccc7n(-c7ccccc7)c6c54)nc(-n4c5ccccc5c5ccc6c7ccccc7n(-c7ccccc7)c6c54)n3)cc2)cc1
In Cc1ccccc1
  fluorescence lifetime: 8.7 ns
